In patent US20050239061A1, “Identification and use of effectors and allosteric molecules for the alteration of gene expression” (priority 2000, published 2005):
Where two headings read alike, the source gives them in different places.

Columns and labels:
[1] = biological target: T1, HIV RT (Human immunodeficiency virus type 1 group M subtype B, UniProt P04585); conditions: cited from earlier work
T1 construct: Atevirdine/nonnucleoside reverse

[2] = cited from earlier work; for Biodistribution: in vivo
[3] = cited from earlier work
[4] = in vivo; cited from earlier work
[5] = system: TA-50 ribozyme; test: Theophylline-dependent self-cleavage of ribozyme TA-50; format: biochemical; conditions: FIG. 9

Molecule | Biodistribution [2] | Bioavailability ([3]; oral) | Toxicity/Drug Interactions [4] | also measured
CCNc1cccnc1N1CCN(C(=O)c2cc3cc(OC)ccc3[nH]2)CC1 [Atevirdine] | Widely distributed, crosses blood-brain | well absorbed orally | – | Other Pharmacology [1]: Viral target, no other known activity; maximum concentration of drug in serum ([2]; oral delivery): delivery): 7.3 uM; time to peak serum ([3]; oral): 30 to 60 min
Cl.O=C(O)c1cn(C2CC2)c2c(Cl)c(N3C[C@@H]4CCCN[C@@H]4C3)c(F)cc2c1=O [Bay-y-3118] | – | Orally absorbed | No abnormal findings in humans | Half life ([3]; oral): 11.4 h; Tmax ([3]; oral): 1.3 h
CN1CCN(c2cc3c(cc2F)c(=O)c(C(=O)O)cn3-c2ccc(F)cn2)CC1.Cl [Fandofloxacin] | Good organ distribution including muscle | Orally absorbed | Well tolerated, v. low phototoxicity | –
Cc1oc(-c2ccccc2)nc1CCOc1ccc(C[C@H](Nc2ccccc2C(=O)c2ccccc2)C(=O)O)cc1 [GW-2570] | Muscle and adipose | – | – | Bioavailability ([3]; in vivo, po): Oral
O=C1NC(=O)C(Cc2ccc3cc(OCc4ccccc4F)ccc3c2)S1 (stereo not shown) [MCC-555] | Muscle and adipose | – | Liver toxicity (controversial) | Bioavailability ([3]; in vivo, po): Oral
COc1ccc2c(c1)N(C(=O)OC(C)C)[C@@H](CSC)C(=S)N2 [Talviraline] | Wide | – | – | Other Pharmacology [1]: Viral target, no other known activity
CSc1nc2cc(Cl)c(Oc3cccc(Cl)c3Cl)cc2[nH]1 [Triclabendazole] | Liver/metabolism important | Oral | Low/none in humans | –
Cn1c(=O)c2[nH]cnc2n(C)c1=O [theophylline] | – | – | acceptable | theophylline concentration giving highest cleavage activity of TA-50 ribozyme [5]: 10 to 50 µM
TA-50: theophylline-responsive self-cleaving hammerhead ribozyme sequence selected after seven cycles, SEQ ID NO:5 (nucleic acid, listed as RNA, chemistry not given here) GGGAGAGGGAUCCAGCUGACGAGUACUGAAUACCAGCCGAAAGGCCCUUGGCAGGUUUGGUGAAACGCCUUCGGCGUCCUGGAUUAGAACUUC | – | – | – | self-cleaving ability ([5]; presence of theophylline): strongly dependent on the presence of theophylline
